Results on two compounds are retold here after patent US20230158153A1, “PI3 KINASE INHIBITORS AND USES THEREOF” (Purdue Research Foundation, priority 2020, published 2023).

The subject of one data set is IPF fibroblasts. As to the kind of experiment: Molecular crowding assay for collagen in IPF fibroblasts. Type of data set: cell-based, human. The settings on record: 100 nM, 2 h, then inhibitor-free media with TGFβ1. The procedure:
FIG. 7E and FIG. 7F show assay of collagen biosynthesis (green channel) using a molecular crowding assay (0.1% DMSO vehicle was constant for all experimental conditions). IPF fibroblasts were treated with 100 nM omipalisib, PI3Ki1 or FAPL-PI3Ki1for 2 hours, after which the media were removed and the fibroblasts were further stimulated for 48 h with media containing TGFβ1 (10 ng/mL). Cell counts were obtained from DAPI counterstaining (blue channel). Data were analyzed using one-way ANOVA, followed by post-hoc Tukey test (n=3; *p.-(0.05).
Next, the FAP-targeted PI-3 kinase inhibitors were tested to determine if they might suppress collagen formation by human IPF fibroblasts. For this purpose, TGFβ1-stimulated IPF lung fibroblasts were stimulated for 2 h with omipalisib, PI3Ki1, or FAPL-PI3Ki1, followed by replacement of the inhibitor-containing media with inhibitor-free growth media and continued incubation for 46 h. […] Importantly, this concurrent suppression of both mTOR and PI3K activity should be very beneficial to the desired therapy, since collagen synthesis associated with pathogenic fibrosis can be induced by both pathways.
Confluent IPF fibroblasts (4000 cells/well) were cultured in 96-well plates in DMEM containing 0.4% fetal calf serum, ascorbic acid (100 μM), and mixed Ficoll 70 and Ficoll 400 as molecular crowding agents. […]

In a further data set the test system is HLF cells. The data set is described as follows: Caspase 3 and 7 activities in HLF cells (drug-induced apoptosis). Type of data set: cell-based. The procedure: The experiments in panels A-E have been reproduced three times, each with three independent samples, n=3).
(§1) To determine whether the nontargeted version of PI3Ki1 might enter human lung fibroblasts and inhibit PI3K activity, HLF-FAP cells were incubated for 24 h with either omipalisib or PI3Ki1 and then the impact on TGFβ1 stimulation, including phosphorylation of Akt, collagen synthesis, contraction of a collagen gel, and apoptosis of myofibroblasts were examined. […] Moreover, nontargeted PI3Ki1suppressed collagen synthesis with better potency than omipalisib, displaying an IC50˜10 nM (FIG. 4C).

Data set [1] relates to PI3K. The data set is described as follows: Western blot of Akt phosphorylation in TGFβ1-stimulated HLF cells. Type of data set: cell-based, human. Also noted: inhibition of Akt phosphorylation on serine 473: dose or concentration left out as unconfirmed. The procedure: (§2) Lysates were collected and analyzed for the indicated proteins by Western blotting, wherein pAkt (S473) is phosphorylated protein kinase B, Akt is protein kinase B, Col.1 is collagen 1, αSMA is α-smooth muscle actin, pSMAD2 is phosphor-SMAD2 kinase, SMAD2 is mothers against decapentaplegic homolog 2, and GAPDH is glyceraldehyde 3-phosphate dehydrogenase.
as §1
(§3) Serum starved confluent HLF cells were co-incubated in medium containing 10 ng/ml TGFβ1 with or without the indicated concentrations of PI3K inhibitors for 24 hours. Cells were harvested and lysed for Western blot analysis. Following sodium dodecyl sulphate polyacrylamide gel electrophoresis and blocking, membranes were incubated with antibodies to detect pSMAD2 Ser465/467 (#3101, Cell Signalling Technology), or pAkt Ser473 (#4060, Cell signalling Technology), and signals were visualized with ECL Western Blot Detection Reagents (GE Healthcare). […]

Data set [2] deals with PI3K. As to the kind of experiment: Western blot of Akt phosphorylation in TGFβ1-stimulated human IPF fibroblasts. Type of data set: cell-based. As to conditions: 3, 9, 27 or 81 min incubation. As to the method: After replacing the medium with inhibitor-free medium, the cells were cultured for an additional 22 hours, lysed with phosphatase inhibitor containing cell lysis solution, and analyzed for the indicated proteins by Western blotting (n=3).
After an additional 24-hour incubation, cells were lysed and the indicated proteins were analyzed by Western blotting (n=3).
Random/zed shRNA (shCTL) served as a control (n=2).
FIGS. 8A-8B are representative Western blots showing that FAP-targeted PI-3 Kinase inhibitor (FAPL-PI3Ki1) suppresses phosphorylation of Akt in IPF fibroblasts.
Firstly, primary lung fibroblasts from an IPF patient were stimulated for 24 h with TGFβ1 (to activate them to a FAP-expressing state) and then incubated for 2 h with increasing concentrations of FAPL-PI3Ki1, in the presence or absence of 100-fold excess FAPL to block unoccupied FAP sites.
Secondly, IPF lung fibroblasts were stimulated with TGFβ1 and then incubated for different durations with either FAPL-targeted or nontargeted PI3Ki1, followed by replacement of the culture media with inhibitor-free media (FIG. 7B and FIGS. 8A-8B). The anticipation was that FAP-targeted PI3Ki1 would be retained by FAP on FAP-expressing cells during short incubation times, whereas nontargeted PI3Ki1would not be captured by FAP and would subsequently be washed away when the media was changed. […]
(In western blotting, separated proteins are transferred to a membrane and probed.)

The test system of data set [3] is TGFβ1-stimulated HLF cells. As to the kind of experiment: Collagen synthesis (Col.1/GAPDH) in TGFβ1-stimulated HLF cells. The class given is cell-based. As to conditions: Homo sapiens, TGFβ1 10 ng/mL, 24 h, read-out: IC50 of suppression of collagen synthesis. The procedure: as §2, §1, §3
A further data set deals with HLF. The data set is described as follows: HLF contraction of a collagen gel. Type of data set: cell-based, human. The settings on record: 100 nM. As to the method:
Data were analyzed using one-way ANOVA, followed by post-hoc Tukey test (n=3; *p<0.01).
as §1

In the case of `COc1ncc(-c2ccc3nccc(-c4ccnnc4)c3c2)cc1NS(=O)(=O)c1ccc(F)cc1F` [omipalisib, reference compound], the biosynthesis of collagen entry in the data set on IPF fibroblasts was “only moderately inhibited”.

Take `COc1ncc(-c2ccc3nccc(-c4ccc(CO)nc4)c3c2)cc1NS(=O)(=O)c1ccc(F)cc1F` [PI3Ki1]: in the data set with HLF cells (concentrations below 100 nM), the caspase activity entry is “weak induction of caspase activity”. Also, the “fibroblast apoptosis (caspase 3 and 7 activation)” value with HLF cells (increasing concentrations) was “only promoted fibroblast cell death at concentrations much higher than those required to prevent collagen synthesis”. Further, the “inhibition of Akt phosphorylation on serine 473” value with PI3K [1] is given as “nearly complete inhibition”. Also, the IC50 in the data set on PI3K [1] (Homo sapiens, HLF, TGFβ1 10 ng/mL, 24 h, read-out: IC50 of inhibition of phosphorylation of Akt) is around 1 nM; in data set [3], around 10 nM. In addition, in the data set on PI3K [2], the “pAkt after short incubation and replacement with inhibitor-free media” value is given as “no diminution in pAkt expression”. Further, the biosynthesis of collagen entry with IPF fibroblasts is “only moderately inhibited”. Besides, the “inhibition of TGFβ1 stimulated fibroblast contraction of a collagen gel” value with HLF is “reduce TGFβ1 induced collagen remodeling”.

The IC50 is the concentration at which inhibition is half-maximal.
